Reference: patent US20230263757A1, “DISINFECTING WIPE KIT FOR CENTRAL VENOUS ACCESS DEVICES” (SterileCare Inc., priority 2022, published 2023)

Legend:
[1] = test system: S. epidermidis SK9; test: MIC, micro broth dilution; format: cell-based, Staphylococcus epidermidis; settings: alone
Procedure: (§1) An assay was made using a minimum inhibitory concentration (MIC) and minimum bactericidal concentration (MBC) and minimum fungicidal concentration (MFC) determination. The MIC was determined by the micro broth dilution method in 96-well plates. Serial two-fold dilutions of tetrasodium EDTA (from 2% to 0.015%), ethanol (from 50% to 0.1%) and chlorhexidine HCl (from 100 μg/mL to 0.025 μg/mL) were prepared in MH broth with a final volume of 90 μL per well. A 10 μL containing 1×10^5 bacterial cells or 2×10^3 fungal cells were added to each well. The inoculated plates were covered with a lid, sealed with Parafilm, and incubated for 24 h at 37° C. with slight rocking on a tilting platform shaker. After incubation, the optical density at 600 nm (OD 600) of the cultures in each well was measured using an xMark™ Microplate Absorbance Spectrophotometer (Bio-Rad). […] MBCs and MFCs were determined by transferring 100 μL from each well with no apparent growth onto appropriate agar plates, followed by incubation for 24 h at 37° C.

[2] = test system: Candida albicans SK4b; test: MIC, micro broth dilution; format: cell-based; settings: alone
Procedure: as §1

[3] = test system: Escherichia coli ON29; test: MIC, micro broth dilution; format: cell-based; settings: alone
Procedure: as §1

[4] = test system: Proteus mirabilis ON153; test: MIC, micro broth dilution; format: cell-based; settings: alone
Procedure: as §1

[5] = test system: Pseudomonas aeruginosa SK1; test: MIC, micro broth dilution; format: cell-based; settings: alone
Procedure: as §1

[6] = test system: Serratia marcescens SK2; test: MIC, micro broth dilution; format: cell-based; settings: alone
Procedure: as §1

[7] = test system: Staphylococcus aureus ON89; test: MIC, micro broth dilution; format: cell-based; settings: alone
Procedure: as §1

[8] = test system: Staphylococcus epidermidis ON170; test: MIC, micro broth dilution; format: cell-based; settings: alone
Procedure: as §1

[9] = test system: Stenotrophomonas maltophilia ON17; test: MIC, micro broth dilution; format: cell-based; settings: alone
Procedure: as §1

[10] = test system: MRSA ON184; test: MIC, micro broth dilution; format: cell-based, S. aureus; settings: alone
Procedure: as §1

[11] = test system: Candida albicans SK4b; test: Checkerboard titration, FICI; format: cell-based; settings: EDTA + ethanol
Procedure: (§2) A fourth composition and solution included tetrasodium EDTA with ethanol or chlorhexidine HCl. This fourth composition and solution were created using checkerboard titration methods using micro broth dilution in 96-well microtiter plates. The concentrations of antimicrobials used were based on previously determined MIC values. Briefly, 200 μL, of two-fold dilutions of tetrasodium EDTA and ethanol or chlorhexidine HCl were prepared in MH or MH II broth with standardized cell suspension. […] Microtiter plates were incubated at 37° C. for 24 h, and the results were analyzed. Each test was performed in duplicate and included a growth control without adding any antimicrobials.

[12] = test system: Escherichia coli ON29; test: Checkerboard titration, FICI; format: cell-based; settings: EDTA + ethanol
Procedure: as §2

[13] = test system: Proteus mirabilis ON153; test: Checkerboard titration, FICI; format: cell-based; settings: EDTA + ethanol
Procedure: as §2

[14] = test system: Pseudomonas aeruginosa SK1; test: Checkerboard titration, FICI; format: cell-based; settings: EDTA + ethanol
Procedure: as §2

[15] = test system: Serratia marcescens SK2; test: Checkerboard titration, FICI; format: cell-based; settings: EDTA + ethanol
Procedure: as §2

[16] = test system: Staphylococcus aureus ON89; test: Checkerboard titration, FICI; format: cell-based; settings: EDTA + ethanol
Procedure: as §2

[17] = test system: Staphylococcus epidermidis ON170; test: Checkerboard titration, FICI; format: cell-based; settings: EDTA + ethanol
Procedure: as §2

[18] = test system: Stenotrophomonas maltophilia ON17; test: Checkerboard titration, FICI; format: cell-based; settings: EDTA + ethanol
Procedure: as §2

[19] = test system: C. albicans ON47; test: Checkerboard titration, FICI; format: cell-based, Candida albicans; settings: EDTA + ethanol
Procedure: as §2

[20] = test system: S. epidermidis SK9; test: MBC/MFC determination; format: cell-based, Staphylococcus epidermidis; settings: alone
Procedure: as §1

[21] = test system: MRSA ON184; test: MBC/MFC determination; format: cell-based, S. aureus; settings: alone
Procedure: as §1

[22] = test system: C. albicans ON47; test: MBC/MFC determination; format: cell-based, Candida albicans; settings: alone
Procedure: as §1

[23] = test system: Candida albicans SK4b; test: Checkerboard, FMCI; format: cell-based; settings: EDTA + ethanol
Procedure: as §1, §2

[24] = test system: Escherichia coli ON29; test: Checkerboard, FMCI; format: cell-based; settings: EDTA + ethanol
Procedure: as §1, §2

[25] = test system: Proteus mirabilis ON153; test: Checkerboard, FMCI; format: cell-based; settings: EDTA + ethanol
Procedure: as §1, §2

[26] = test system: Pseudomonas aeruginosa SK1; test: Checkerboard, FMCI; format: cell-based; settings: EDTA + ethanol
Procedure: as §1, §2

[27] = test system: Serratia marcescens SK2; test: Checkerboard, FMCI; format: cell-based; settings: EDTA + ethanol
Procedure: as §1, §2

[28] = test system: Staphylococcus aureus ON89; test: Checkerboard, FMCI; format: cell-based; settings: EDTA + ethanol
Procedure: as §1, §2

[29] = test system: Staphylococcus epidermidis ON170; test: Checkerboard, FMCI; format: cell-based; settings: EDTA + ethanol
Procedure: as §1, §2

[30] = test system: Stenotrophomonas maltophilia ON17; test: Checkerboard, FMCI; format: cell-based; settings: EDTA + ethanol
Procedure: as §1, §2

[31] = test system: Staphylococcus epidermidis SK9; test: FBEC index, checkerboard on biofilms; format: cell-based; settings: EDTA + ethanol
Procedure: (§3) In step (4), microtiter plates are incubated at 37° C. for 24 h. then (6), after incubation, the bacterial and fungal cells were dislodged from the pegs into the recovery medium described above.
(§4) Three 10-μL aliquots, for a total of 30 μL from each well of recovery medium, were spotted on MH agar plates and incubated for 24 h at 37° C. […] The FBEC determination is a modification of the FICI.

[32] = test system: Pseudomonas aeruginosa SK1; test: FBEC index, checkerboard on biofilms; format: cell-based; settings: EDTA + ethanol
Procedure: as §3, §4

[33] = test system: Proteus mirabilis ON153; test: FBEC index, checkerboard on biofilms; format: cell-based; settings: EDTA + ethanol
Procedure: as §3, §4

[34] = test system: Candida albicans SK4b; test: FBEC index, checkerboard on biofilms; format: cell-based; settings: EDTA + ethanol
Procedure: as §3, §4

Question: What does the source list for `CCO` [Ethanol, ethanol]?
Answer: MIC [1]: 6.25 % w/v; MIC [2]: 6.25 % w/v; MIC [3]: 12.5 % w/v; MIC [4]: 6.25 % w/v; MIC [5]: 3.125 % w/v; MIC [6]: 6.25 % w/v; MIC [7]: 6.25 % w/v; MIC [8]: 3.125 % w/v; MIC [9]: 6.25 % w/v; MIC [10]: 6.25 % w/v; concentration in combination [11]: 1.6 % w/v; concentration in combination [12]: 3.125 % w/v; concentration in combination [13]: 1.6 % w/v; concentration in combination [14]: 3.125 % w/v; concentration in combination [15]: 3.125 % w/v; concentration in combination [16]: 0.4 % w/v; concentration in combination [17]: 0.4 % w/v; concentration in combination [18]: 0.4 % w/v; concentration in combination [19]: 0.4 % w/v; MBC/MFC [20]: 12.5 % w/v; MBC/MFC [21]: 25 % w/v; MBC/MFC [22]: 6.25 % w/v; microbicidal concentration in combination [23]: 3.125 % w/v; microbicidal concentration in combination [24]: 6.25 % w/v; microbicidal concentration in combination [25]: 6.25 % w/v; microbicidal concentration in combination [26]: 6.25 % w/v; microbicidal concentration in combination [27]: 6.25 % w/v; microbicidal concentration in combination [28]: 3.125 % w/v; microbicidal concentration in combination [29]: 1.6 % w/v; microbicidal concentration in combination [30]: 1.6 % w/v; biofilm eradication concentration in combination (FBEC) [31]: 1.6 % w/v; biofilm eradication concentration in combination (FBEC) [32]: 3.125 % w/v; biofilm eradication concentration in combination (FBEC) [33]: 6.25 % w/v; biofilm eradication concentration in combination (FBEC) [34]: 1.6 % w/v
